The values below come from patent US5342612A, “Compositions for the treatment of mammalian diseases” (priority 1991, dated 1994).

One series concerns S. aureus. Briefly: Potentiation of lysostaphin bactericidal activity (minimum bactericidal concentration assay, survival of S. aureus). Format: cell-based, Staphylococcus aureus. Conditions: 18 h. The protocol: Preparation of 50% glycerol and 15% poloxamer 407 NF plus lysostaphin is as follows: The lysostaphin stock of 2.5 mg/mL is thawed and filtered through a 0.22μ filter. [formula]
In a similar fashion, triacetin solutions are also prepared.
Mueller-Hinton Broth containing lysostaphin is prepared as above. Penicillin in Mueller-Hinton Broth is prepared to serve as a control. Starting with a frozen 2.5 mg/mL stock solution the penicillin is diluted as follows: 400 μl of 2.5 mg/mL is placed in 600 μl of Mueller-Hinton Broth to yield a 1000 μg/mL solution. Added to 3744 μl of Mueller-Hinton Broth is 256 μl of the 1000 μg/mL solution to yield a 64 μg/mL solution.
Placed in sterile tubes are 2 mL of the vehicle and lysostaphin; Mueller-Hinton Broth plus lysostaphin; and Mueller-Hinton Broth plus penicillin. Serial two-fold dilutions are performed by hand using 1 mL of the appropriate vehicle as the diluent. Lysostaphin and penicillin dilutions range from 64 μg/mL to 0.25 μg/mL. All combinations are done in duplicate. The Staphylococcus aureus is grown for 5 hours in 5 mL of TSB and 0.1 mL is removed and placed in 9.9 mL of saline. Each tube is inoculated with 100 μl of the diluted culture. Plate counts are performed on the inoculum. All tubes are incubated for 18 hours at 37° C. with constant agitation. Following incubation, each dilution of lysostaphin in the vehicles or Mueller-Hinton Broth and penicillin in Mueller-Hinton Broth is diluted in phosphate buffered saline to 10^-2, 10^-4 and 10^-6.
Plated on a TSA with 10% sheep blood is 100 μl of the undilute and of each dilution. The plates are inverted and incubated for 18 hours. Following incubation, the number of colonies on each plate is counted.
The vehicles which inhibit the growth or are moderately bactericidal to S. aureus by themselves are unable to be evaluated using the MIC procedure. For these vehicles a minimum bactericidal concentration assay (MBC) is performed. This assay in conjunction with the previous MIC data distinguish bacteriostatic effects versus bactericidal effects of the vehicles. Various formulations are mixed with lysostaphin at a final concentration of 32 μg/mL. Ten, serial two- or four-fold dilutions of the lysostaphin are performed in the vehicle and each tube inoculated with a 2-6 x's 106 S. aureus CFU's (bacterial colony-forming units). Samples are removed after 18 hours and plated on blood agar plates.

A further series relates to S. aureus mastitis. Conditions: Oldham et al.; in words; cited from earlier work.
Series [1] relates to Staphylococcus aureus (Newbould 305). Briefly: Potentiation of lysostaphin bacteriostatic activity (minimum inhibitory concentration). Format: cell-based. Conditions: in saline, diluted in MHB. As to the method: Dissolved in 15% w/v poloxamer 407 NF is 512 μg/mL of lysostaphin by adding 487.4 μl of a 2.5 mg/mL aqueous solution to 1512.6 μl of the 15% w/v poloxamer 407 NF in sPBS. The lysostaphin is first filtered through a 0.22 μ filter and the concentration is adjusted (1.19 factor). The poloxamer 407 NF is mixed overnight and filtered through a 0.22μ cellulose acetate filter. In a similar fashion, preparations with other vehicles such as lysostaphin in triacetin are prepared.
Lysostaphin in Mueller-Hinton Broth is run as a control and a 512 μg/mL solution is prepared from the same 2.5 mg/mL solution as the poloxamer 407 NF mixture. Placed in 189 μl of Mueller-Hinton Broth is 61 μl of the 2.5 mg/mL solution.
Placed in the first well of a 12 well row is 100 μl of each mixture and serial two-fold dilutions are performed in Mueller-Hinton Broth through row 12. Following dilution, 50 μl of inoculum is added to each well. Inoculum is prepared by inoculating a tube of trypticase soy broth (TSB) from an overnight trypticase soy agar (TSA) culture containing a 10% sheep blood plate of Staphylococcus aureus (Newbould 305). The tube is incubated for 5 hours at 37° C. with constant agitation. […]
The inhibitory profile as measured by the reduction of the optical density at 650 nm in the presence of the vehicle is then compared to that of lysostaphin diluted in Mueller-Hinton Broth. […]

Series [2] has as its system P388.D1 (Macrophage tumor cell line). Briefly: in vitro. In kind it is cell-based, murine. The protocol: (§1) Cell Lines: A20: B-cell tumor cell line 9C127: T-cell hybridoma cell line LB/62287: B-cell lymphoma cell line P388.D1: Macrophage tumor cell line
(§2) Cell lines (1×10^5 /well; >85% viability) are cultured in 24 well flat bottom plates in RPMI® medium (Gibco Laboratories, Grand Island, N.Y.) supplemented with 10% fetal calf serum, streptomycin (100 μg/mL) and penicillin (100 U/mL). Cultures are incubated (37° C., 10% CO2) with the following concentrations of vehicles:
(§3) c) 1.0%, 0.1% or 0.01% Triacetin or IMWITOR®
(§4) After a 72 hour or 6 hour incubation period, cells are harvested and counted by the Coulter Counter (Northwell Drive, England). Cell viability is determined using a Coulter Channelyzer.
(§5) The relative toxicity of the sample formulations to estimate the relative degree of toxicity for in vivo administration is carried out in vitro with the mammalian cell lines. Various concentrations of the vehicles are incubated for either 6 or 24 hours with the different mammalian cell lines. Immediate toxicity is evaluated at 6 hours by quantitating the number of dead cells in treated wells as compared to the untreated controls. Long term toxicity effects as well as effects which may inhibit cell growth are evaluated by measuring the relative degree of proliferation after an additional 48 hours incubation with ^3 H-thymidine.

In series [3] the test system is 9C127 (T-cell hybridoma cell line). Briefly: Toxicity of formulations on mammalian cell lines (cell viability, Coulter). In kind it is cell-based, murine. As to the method:
as §1, §2, §3, §4, §5

Series [4] deals with A20 (B-cell tumor cell line). Described as above. Format: cell-based, murine. The protocol: as §1, §2, §3, §4, §5
[5] abbreviates: lysostaphin (or penicillin) 1 μg/mL.
[6] abbreviates: lysostaphin (or penicillin) 4 μg/mL.

As to “Lysostaphin: gene product of Staphylococcus simulans, enzymatically degrading the polyglycine crosslinks of the cell wall”, the “Survival of S. aureus CFU (Log 10) in Vehicles” value in the series on S. aureus (lysostaphin 0.25 μg/mL) was 9.7 CFU (Log 10); in the series with S. aureus (lysostaphin 2 μg/mL) it was 3.6 CFU (Log 10); with S. aureus (lysostaphin (or penicillin) 0.5 μg/mL), 8.6 CFU (Log 10); with S. aureus (setting [5]), 8.1 CFU (Log 10); in the series on S. aureus (setting [6]), 4.8 CFU (Log 10); in the series with S. aureus (lysostaphin (or penicillin) 8 μg/mL), 3.3 CFU (Log 10). Besides, the “Killing of S. aureus (footnote class)” value was “^3 (Greater than 99.99% killing of S. aureus)” in the series on S. aureus (lysostaphin 2 μg/mL), “^3 (Greater than 99.99% killing of S. aureus)” with S. aureus (lysostaphin 8 μg/mL), “^2 (Greater than 95% killing of S. aureus)” in the series on S. aureus (setting [5]) and “^3 (Greater than 99.99% killing of S. aureus)” with S. aureus (setting [6]). Besides, the “Therapeutic efficacy compared with CEFA-LAK” value with S. aureus mastitis is reported as “not equivalent to the commercially available product CEFA-LAK®”. Moreover, the results for the “Control MIC of lysostaphin” value in series [1] (control of the PLURONIC F127 line) and in series [1] (control of the triacetin line) were 0.125 and 1.0, respectively.

Consider PLURONIC ® F 127, for which the “Relative Toxicity at 6 Hours” value in series [2], in series [3] and in series [4] was “-” throughout.
